Key:
[1] = target: T1, CC chemokine receptor 4 (CCR4) (Mus musculus, UniProt P51680); assay: inhibition of CCL22-driven chemotaxis of mouse iTreg in […] serum; type: cell-based
T1 sequence (P51680 1-360): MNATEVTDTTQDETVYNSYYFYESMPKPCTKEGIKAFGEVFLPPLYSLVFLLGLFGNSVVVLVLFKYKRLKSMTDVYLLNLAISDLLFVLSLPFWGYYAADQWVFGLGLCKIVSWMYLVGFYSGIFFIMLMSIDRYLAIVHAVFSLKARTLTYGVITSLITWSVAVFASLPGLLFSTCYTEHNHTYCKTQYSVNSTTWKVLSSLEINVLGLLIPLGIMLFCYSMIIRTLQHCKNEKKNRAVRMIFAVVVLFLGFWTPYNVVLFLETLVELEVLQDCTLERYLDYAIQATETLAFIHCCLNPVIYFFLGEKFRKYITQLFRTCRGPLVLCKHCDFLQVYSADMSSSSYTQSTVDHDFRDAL

[2] = target: T2, CC chemokine receptor 4 (CCR4) (Homo sapiens, UniProt P51679); assay: inhibition of CCL22-driven chemotaxis of human iTreg in […] serum; type: cell-based
T2 sequence (P51679 1-360): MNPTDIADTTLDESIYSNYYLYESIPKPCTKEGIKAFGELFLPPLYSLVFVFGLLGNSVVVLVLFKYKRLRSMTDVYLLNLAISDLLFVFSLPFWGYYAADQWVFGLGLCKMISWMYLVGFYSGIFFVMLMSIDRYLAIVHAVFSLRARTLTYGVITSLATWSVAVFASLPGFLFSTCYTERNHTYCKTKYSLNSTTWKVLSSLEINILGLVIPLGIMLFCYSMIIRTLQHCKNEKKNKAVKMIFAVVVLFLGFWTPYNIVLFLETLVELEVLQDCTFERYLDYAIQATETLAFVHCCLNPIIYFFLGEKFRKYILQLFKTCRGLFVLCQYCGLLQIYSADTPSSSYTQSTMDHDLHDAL

SMILES: C[C@H](c1ccc(Cl)cc1Cl)n1nc(C#N)c2ncc(N3CC([C@H]4CCCN(CCO)C4)C3)nc21 [CCR4-351]
- IC50 [1]: ~40 nM
- IC50 [2]: ~40 nM

From publication PMC7692993 (Journal for Immunotherapy of Cancer, 2020)
